Results published in patent US20250018068A1, “4H-IMIDAZO[1,5-B]PYRAZOLE DERIVATIVES FOR DIAGNOSIS” (AC IMMUNE SA, priority 2021, published 2025).
Structures can show the parent of a compound that is named as a salt. Where two headings read alike, the source gives them in different places.

Biological target: T1, PD brain-derived alpha-synuclein aggregates (Homo sapiens, UniProt P37840)
T1 construct: from tissue; host or cells: human PD donor brain, sarkosyl-insoluble pellet
Experiment: Micro-radiobinding competition assay for the determination of binding affinity
Settings: for inhibition at 0.1 µM: read-out: Micro-radiobinding competition assay Competition at 100 nM (%); for inhibition at 1 µM: read-out: Micro-radiobinding competition assay Competition at 1 μM (%); for Ki: * = mean of two independent experiments, two donors
Procedure: The procedure was adapted from the protocol described in Spillantini et al., 1998. Frozen tissue blocks from PD donors were thawed on ice and homogenized using a glass dounce homogenizer. The homogenate was then centrifuged at 11,000×g (12,700 RPM) in an ultracentrifuge (Beckman, XL100K) for 20 minutes at 4° C. using a pre-cooled 70.1 rotor (Beckman, 342184). Pellets were resuspended in extraction buffer [10 mM Tris-HCl pH 7.4, 10% sucrose, […], 1% protease inhibitor (Calbiochem 539131), 1 mM EGTA, 1% phosphatase inhibitor (Sigma P5726 and P0044)] and centrifuged at 15,000×g (14,800 RPM, a 70.1 Ti rotor) for 20 minutes at 4° C. Pellets were discarded and sarkosyl (20% stock solution, Sigma L7414) was added to the supernatants to a final concentration of 1% at room temperature for one hour. This solution was then centrifuged at 100,000×g (38,000 RPM, 70.1 Ti rotor) for one hour at 4° C. Pellets containing enriched alpha-synuclein aggregates were resuspended in PBS and stored at −80° C. until use.
PD brain-derived alpha-synuclein aggregates were spotted onto microarray slides. The slides were incubated with [^3H]-alpha-synuclein reference at 6 nM or 20 nM and the example compounds (non-radiolabelled) at 1 μM and 100 nM. In some cases, the non-radiolabelled example compounds were further assessed for a range of different concentrations, varying from 0.05 nM to 2 μM. After incubation, slides were washed and scanned by a real-time autoradiography system (BeaQuant, ai4R). Quantification of the signal was performed by using the Beamage image analysis software (ai4R). Non-specific signal was determined with an excess of non-radiolabelled Example-1 (2 μM) and specific binding was calculated by subtracting the non-specific signal from the total signal. Competition was calculated as percent, where 0% was defined as the specific binding in the presence of vehicle and 100% as the values obtained in the presence of excess of the non-radiolabelled Example-1. Ki values were calculated in GraphPad Prism7 by applying a nonlinear regression curve fit using a one site, specific binding model. All measurements were performed with at least two technical replicates. For compounds tested in more than one experiment, the mean of the replicates or Ki values in independent experiments is reported.
Results: Example compounds were assessed for their potency to compete with the binding of [^3H]-reference alpha-synuclein ligand to PD patient brain-derived alpha-synuclein aggregates. Results of the micro-radiobinding competition assay for the example compounds tested are shown in Table 3 as: % competition at 1 μM and 100 nM.
Table 3: Assessment of binding affinity by micro-radiobinding competition assay on human PD brain-derived alpha-synuclein aggregates. Percent (%) competition over the tritiated [^3H]-Example-1 ligand in the presence of 1 μM and 100 nM of example compounds 1-9. Ki values are also shown for selected example compounds. *, mean of Ki values in two independent experiments using PD brain-derived homogenates from two different donors.

[1] = 100 nM non-radiolabelled compound, competition over tritiated [3H]-Example-1 ligand, human PD brain-derived alpha-synuclein aggregates
[2] = 1 μM non-radiolabelled compound, competition over tritiated [3H]-Example-1 ligand, human PD brain-derived alpha-synuclein aggregates
[3] = human PD brain-derived alpha-synuclein aggregates

**Q.** `O=C1N(c2cccnc2)Cc2cc(-c3ccc(N4CC[C@@H](F)C4)nc3)nn21` [Example 2, (R)-2-(6-(3-fluoropyrrolidin-1-yl)pyridin-3-yl)-5-(pyridin-3-yl)-4H-imidazo[1,5-b]pyrazol-6(5H)-one hydrochloride] was tested. Which inhibition at 0.1 µM [1] did it give?
**A.** 87%

**Q.** What about the inhibition at 1 µM [2] of the same compound?
**A.** 97%

**Q.** And the Ki [3]?
**A.** 46 nM

**Q.** Which results are given for `Cc1ncc(N2Cc3cc(-c4ccc(N5CC[C@H](F)C5)nc4)nn3C2=O)s1` [Example 19, (S)-2-(6-(3-fluoropyrrolidin-1-yl)pyridin-3-yl)-5-(2-methylthiazol-5-yl)-4,5-dihydro-6H-imidazo[1,5-b]pyrazol-6-one hydrogen chloride salt]?
**A.** inhibition at 0.1 µM [1]: 41%; inhibition at 1 µM [2]: 78%; Ki [3]: 65 nM

**Q.** Which inhibition at 0.1 µM does the source give for `O=C1N(c2cccnc2)Cc2cc(-c3ccc(Br)nc3)nn21` [Example 9, 2-(6-bromopyridin-3-yl)-5-(pyridin-3-yl)-4H-imidazo[1,5-b]pyrazol-6(5H)-one] here?
**A.** 45%

**Q.** And the inhibition at 1 µM?
**A.** 62%

**Q.** What does the source list for `O=C1N(c2cccnc2)Cc2cc(-c3cnc(N4CC[C@@H](F)C4)cn3)nn21` [Example 10, (R)-2-(5-(3-fluoropyrrolidin-1-yl)pyrazin-2-yl)-5-(pyridin-3-yl)-4,5-dihydro-6H-imidazo[1,5-b]pyrazol-6-one]?
**A.** inhibition at 0.1 µM [1]: 72%; inhibition at 1 µM [2]: 100%

**Q.** Which “Micro-radiobinding competition assay Competition at 100 nM (%)” value [1] does the source give for `O=C1N(c2cncs2)Cc2cc(-c3ccc(N4CC[C@H](F)C4)nc3)nn21` [Example 17, (S)-2-(6-(3-fluoropyrrolidin-1-yl)pyridin-3-yl)-5-(thiazol-5-yl)-4,5-dihydro-6H-imidazo[1,5-b]pyrazol-6-one hydrogen chloride salt] here?
**A.** 66%

**Q.** What about the “Micro-radiobinding competition assay Competition at 1 μM (%)” value [2] of the same compound?
**A.** 95%

**Q.** Which inhibition at 0.1 µM [1] does the source give for `O=C1N(c2cccnc2)Cc2cc(-c3cnc(N4CC[C@H](F)C4)c(F)c3)nn21` [Example 13, (S)-2-(5-fluoro-6-(3-fluoropyrrolidin-1-yl)pyridin-3-yl)-5-(pyridin-3-yl)-4,5-dihydro-6H-imidazo[1,5-b]pyrazol-6-one hydrogen chloride salt] here?
**A.** 55%

**Q.** What about the inhibition at 1 µM [2] of the same compound?
**A.** 71%

**Q.** What about the Ki [3] of the same compound?
**A.** 101 nM

**Q.** Which results are given for `Cn1cc(N2Cc3cc(-c4ccc(OCCF)nc4)nn3C2=O)cn1` [Example 22, 2-(6-(2-fluoroethoxy)pyridin-3-yl)-5-(1-methyl-1H-pyrazol-4-yl)-4,5-dihydro-6H-imidazo[1,5-b]pyrazol-6-one hydrogen chloride salt]?
**A.** inhibition at 0.1 µM [1]: 45%; inhibition at 1 µM [2]: 89%

**Q.** `O=C1N(c2ccccn2)Cc2cc(-c3ccc(N4CC[C@@H](F)C4)nc3)nn21` [Example 3, (R)-2-(6-(3-fluoropyrrolidin-1-yl)pyridin-3-yl)-5-(pyridin-2-yl)-4H-imidazo[1,5-b]pyrazol-6(5H)-one] was tested. Which inhibition at 0.1 µM [1] did it give?
**A.** 74%

**Q.** What about the inhibition at 1 µM [2] of the same compound?
**A.** 89%

**Q.** `O=C1N(c2cncs2)Cc2cc(-c3ccc(N4CCC(F)C4)nc3)nn21` (stereo in doubt) [Example 16, (R)-2-(6-(3-fluoropyrrolidin-1-yl)pyridin-3-yl)-5-(thiazol-5-yl)-4,5-dihydro-6H-imidazo[1,5-b]pyrazol-6-one hydrogen chloride salt] was tested. Which inhibition at 0.1 µM [1] did it give?
**A.** 79%

**Q.** What about the inhibition at 1 µM [2] of the same compound?
**A.** 98%

**Q.** Which inhibition at 0.1 µM does the source give for `Cn1cc(N2Cc3cc(-c4ccc(N5CC[C@H](F)C5)nc4)nn3C2=O)cn1` [Example 6, (S)-2-(6-(3-fluoropyrrolidin-1-yl)pyridin-3-yl)-5-(1-methyl-1H-pyrazol-4-yl)-4H-imidazo[1,5-b]pyrazol-6(5H)-one] here?
**A.** 43%

**Q.** And the inhibition at 1 µM?
**A.** 93%

**Q.** Which inhibition at 0.1 µM [1] does the source give for `Cc1nc(N2CC[C@H](F)C2)ccc1-c1cc2n(n1)C(=O)N(c1cccnc1)C2` [Example 15, (S)-2-(6-(3-fluoropyrrolidin-1-yl)-2-methylpyridin-3-yl)-5-(pyridin-3-yl)-4,5-dihydro-6H-imidazo[1,5-b]pyrazol-6-onehydrogen chloride salt] here?
**A.** 48%

**Q.** What about the inhibition at 1 µM [2] of the same compound?
**A.** 80%

**Q.** What about the Ki [3] of the same compound?
**A.** 141 nM

**Q.** What does the source list for `O=C1N(c2cnn(CCF)c2)Cc2cc(-c3ccc(N4CCCC4)nc3)nn21` [Example 8, 5-(1-(2-fluoroethyl)-1H-pyrazol-4-yl)-2-(6-(pyrrolidin-1-yl)pyridin-3-yl)-4H-imidazo[1,5-b]pyrazol-6(5H)-one]?
**A.** Ki [3]: 64 nM; inhibition at 0.1 µM: 27%; inhibition at 1 µM: 73%

**Q.** Which inhibition at 0.1 µM [1] does the source give for `O=C1N(c2cccnc2)Cc2cc(-c3cnc(N4CC[C@H](F)C4)cn3)nn21` [Example 11, (S)-2-(5-(3-fluoropyrrolidin-1-yl)pyrazin-2-yl)-5-(pyridin-3-yl)-4,5-dihydro-6H-imidazo[1,5-b]pyrazol-6-one hydrogen chloride salt] here?
**A.** 25%

**Q.** What about the inhibition at 1 µM [2] of the same compound?
**A.** 76%

**Q.** What about the Ki [3] of the same compound?
**A.** 252 nM

**Q.** For `O=C1N(c2ccccn2)Cc2cc(-c3ccc(N4CC[C@H](F)C4)nc3)nn21` [Example 4, (S)-2-(6-(3-fluoropyrrolidin-1-yl)pyridin-3-yl)-5-(pyridin-2-yl)-4H-imidazo[1,5-b]pyrazol-6(5H)-one hydrochloride], which inhibition at 0.1 µM [1] is on record?
**A.** 94%

**Q.** What about the inhibition at 1 µM [2] of the same compound?
**A.** 100%

**Q.** `O=C1N(c2ccns2)Cc2cc(-c3ccc(N4CC[C@@H](F)C4)nc3)nn21` [Example 20, (R)-2-(6-(3-fluoropyrrolidin-1-yl)pyridin-3-yl)-5-(isothiazol-5-yl)-4,5-dihydro-6H-imidazo[1,5-b]pyrazol-6-one hydrogen chloride salt] was tested. Which inhibition at 0.1 µM [1] did it give?
**A.** 85%

**Q.** What about the inhibition at 1 µM [2] of the same compound?
**A.** 87%

**Q.** With `O=C1N(c2cccnc2)Cc2cc(-c3cnc(N4CC[C@@H](F)C4)c(F)c3)nn21` [Example 12, (R)-2-(5-fluoro-6-(3-fluoropyrrolidin-1-yl)pyridin-3-yl)-5-(pyridin-3-yl)-4,5-dihydro-6H-imidazo[1,5-b]pyrazol-6-one hydrogen chloride salt] as the compound, how does the inhibition at 0.1 µM [1] read?
**A.** 76%

**Q.** What about the inhibition at 1 µM [2] of the same compound?
**A.** 90%

**Q.** And the Ki [3]?
**A.** 34 nM

**Q.** For `O=C1N(c2ccncc2)Cc2cc(-c3ccc(N4CC[C@H](F)C4)nc3)nn21` [Example 5, (S)-2-(6-(3-fluoropyrrolidin-1-yl)pyridin-3-yl)-5-(pyridin-4-yl)-4H-imidazo[1,5-b]pyrazol-6(5H)-one hydrochloride], which inhibition at 0.1 µM [1] is on record?
**A.** 59%

**Q.** And the inhibition at 1 µM [2]?
**A.** 89%

**Q.** And the Ki [3]?
**A.** 26 nM

**Q.** Which results are given for `Cn1ccc(N2Cc3cc(-c4ccc(N5CC[C@H](F)C5)nc4)nn3C2=O)n1` [Example 7, (S)-2-(6-(3-fluoropyrrolidin-1-yl)pyridin-3-yl)-5-(1-methyl-1H-pyrazol-3-yl)-4H-imidazo[1,5-b]pyrazol-6(5H)-one hydrochloride]?
**A.** inhibition at 0.1 µM [1]: 73%; inhibition at 1 µM [2]: 96%

**Q.** With `O=C1N(c2cncs2)Cc2cc(-c3ccc(OCCF)nc3)nn21` [Example 23, 2-(6-(2-fluoroethoxy)pyridin-3-yl)-5-(thiazol-5-yl)-4,5-dihydro-6H-imidazo [1,5-b] pyrazol-6-one hydrogen chloride salt] as the compound, how does the inhibition at 0.1 µM [1] read?
**A.** 31%

**Q.** And the inhibition at 1 µM [2]?
**A.** 82%

**Q.** `O=C1N(c2ccns2)Cc2cc(-c3ccc(N4CC[C@H](F)C4)nc3)nn21` [Example 21, (S)-2-(6-(3-fluoropyrrolidin-1-yl)pyridin-3-yl)-5-(isothiazol-5-yl)-4,5-dihydro-6H-imidazo[1,5-b]pyrazol-6-one hydrogen chloride salt] was tested. Which inhibition at 0.1 µM [1] did it give?
**A.** 82%

**Q.** And the inhibition at 1 µM [2]?
**A.** 90%
